Among the data in PMC7052517 (iScience, 2020) are Kd values, retold here.

Assay [1] deals with T1, α-Synuclein (Homo sapiens, UniProt P37840). The assay can be described thus: isothermal titration calorimetry. It counts as binding. A general note: In ITC the heat of successive injections is recorded.
The target in assay [2] is T1, α-Synuclein. Put plainly: isothermal titration calorimetry. The class given is binding. The source holds these as a separate data set.

SMILES strings stand for the structures. Where two headings read alike, the source gives them in different places.

Take `CC/C=C\C/C=C\C/C=C\CCCCCCCC(=O)O` [ALA, α-linolenic acid]: at α-Synuclein [1], the Kd amounted to 221 µM.
The same measure, in the same setting: the figure for `CCCCCCCC/C=C\CCCCCCCC(=O)O` [OA, oleic acid] is 179 µM.
The molecule `CC1=C(/C=C/C(C)=C/C=C/C(C)=C/C(=O)O)C(C)(C)CCC1` [RA, retinoic acid] displayed a dissociation constant Kd at α-Synuclein [2] of 0.5 µM.

For orientation: Kd means the constant that tells how readily two partners part at equilibrium. Lower therefore signals a tighter complex.
